Literature values, collected in article PMC9669016, “First-in-human phase Ia study of the PI3Kα inhibitor CYH33 in patients with solid tumors” (Nature Communications, 2022).

Tests used:
[1] = set-up: method as in Investigator's Brochure (IB) 12; details: ref Investigator's Brochure (IB) 12, cited from earlier work
CYP1A2 = tested on: CYP1A2; set-up: method as in Investigator's Brochure (IB) 12; details: up to 100 µM; ref Investigator's Brochure (IB) 12; cited from earlier work
salmonella typhimurium = details: cited from earlier work
PI3Kβ, PI3Kδ, and PI3Kγ = tested on: PI3Kβ, PI3Kδ, and PI3Kγ; set-up: method as in PMID 33109399; details: read-out: IC50 range; cited from earlier work
CYP2C9 = tested on: CYP2C9; set-up: method as in Investigator's Brochure (IB) 12; details: up to 100 µM; ref Investigator's Brochure (IB) 12; cited from earlier work

COC(=O)Nc1cc(C(F)(F)F)c(-c2nc(N3CCOCC3)c3cc(CN4CCN(S(C)(=O)=O)CC4)cn3n2)cn1 [CYH33, methyl (5-(6-((4-(methylsulfonyl)piperazin-1-yl)methyl)−4-morpholinopyrrolo[2,1-f][1,2,4]triazin-2-yl)−4-(trifluoromethyl)pyridin-2-yl)carbamate]
number of metabolites detected in vivo [1]: 14 | urinary excretion [1]: less than 1 % of the dose | cumulative excretion of parent drug in feces ([1]; within 96 h after administration): approximately 24 % of the dose | inhibition of CYP1A2 (CYP1A2): did not inhibit | reverse mutation assay (Ames test) result (salmonella typhimurium): negative | IC50 (PI3Kβ, PI3Kδ, and PI3Kγ): 0.043 to 0.611 µM | inhibition of CYP2C9 (CYP2C9): did not inhibit
